Test results taken from US9725490B2, “ERAP1-derived peptide and use thereof” (TOKUSHIMA UNIVERSITY, priority 2011, dated 2017).

Assays:
[1] = system: protein expression in MCF-7 cells; experiment: 2DICAL proteome analysis, MCF-7; assay type: cell-based, human; details: 10 μM, 10 nM E2 1 hour, versus E2 or E2 + scramble
Method: (§1) MCF-7 cells were treated with 10 μM ERAP1-peptide (Peptide) and the ERAP1-scramble peptide (scrPeptide). Then, immediately, the cells were stimulated with 10 nM E2 for 1 hour. Subsequently, the obtained cell lysate solution was digested with trypsin and subjected to 2DICAL. […] MCF-7 cells were treated with 10 μM ERAP1-peptide. Then, immediately, the cells were stimulated with 10 nM E2 for 5, 10 and 15 hours. Then, RNA extraction and then Cy3-cRNA synthesis were performed, and the Cy3-cRNA was subjected to the microarray. The data were statistically analyzed by GeneSpring software, and the ratio to the value at 0 hour was calculated. **P<0.01.
MCF-7 cells were treated with 10 μM ERAP1-peptide and ERAP1-scramble peptide. Then, immediately, the cells were stimulated with 10 nM E2. Then, the cells were fixed with methanol. The cells were dried under reduced pressure, and then treated with trypsin in the presence of 2% sodium deoxycholate and 5 M urea at 37° C. for 20 hours. The protein was extracted with ethyl acetate. […] The data were calculated as a ratio to the value at 0 hour.

[2] = system: estrogen-dependent gene expression in MCF-7 cells; experiment: Microarray transcriptome analysis, MCF-7; assay type: cell-based, human; details: for Fold change: E2 alone/E2 + peptide
Method: as §1
MCF-7 cells were treated with 10 μM ERAP1-peptide. Then, immediately the cells were stimulated with 10 nM E2. Then, RNA extraction was performed. Cy3 labeled cRNA was synthesized with Low Input Quick Amp Labeling Kit (Agilent Technologies, Loveland, Colo., USA) and hybridized with a custom microarray at 65° C. for 17 hours. The microarray was washed. Then, the product hybridized was measured with a microarray scanner (Agilent). The results thereof were digitized with Future Extraction software (Agilent). The data were statistically analyzed with GeneSpring software (Agilent), and the ratio to the value at 0 hour was calculated.

Structure (SMILES): CSCC[C@H](NC(=O)[C@H](CCC(N)=O)NC(=O)[C@H](CCCNC(=N)N)NC(=O)[C@H](CCCNC(=N)N)NC(=O)[C@H](CCCNC(=N)N)NC(=O)[C@H](CCCNC(=N)N)NC(=O)[C@H](CCCNC(=N)N)NC(=O)[C@H](CCCNC(=N)N)NC(=O)[C@H](CCCNC(=N)N)NC(=O)[C@H](CCCNC(=N)N)NC(=O)[C@H](CCCNC(=N)N)NC(=O)[C@H](CCCNC(=N)N)NC(=O)[C@@H](N)CCCNC(=N)N)C(=O)N[C@@H](CC(C)C)C(=O)N[C@@H](CO)C(=O)N[C@@H](CC(=O)O)C(=O)N[C@@H](CC(C)C)C(=O)N[C@H](C(=O)N[C@@H](CC(C)C)C(=O)N[C@@H](CCC(N)=O)C(=O)N[C@@H](CC(C)C)C(=O)N[C@@H](CCCNC(=N)N)C(=O)N[C@@H](CCC(N)=O)C(=O)N[C@@H](CCCNC(=N)N)C(=O)O)[C@@H](C)O [ERAP1-peptide]
- change of protein expressions [1]: decreased significantly and genome-widely
- change of mRNA expressions ([2]; 10 μM, 10 nM E2, versus E2): decreased significantly and genome-widely
- Fold change ([2]; gene ADCY1): 5.92
- Fold change ([2]; gene AKR1C1): 7.79
- Fold change ([2]; gene AKR1C3): 6.37
- Fold change ([2]; gene AKR1C4): 6.00
- Fold change ([2]; gene ANKS6): 9.00
- Fold change ([2]; gene ARHGAP36): 7.08
- Fold change ([2]; gene BASP1): 8.01
- Fold change ([2]; gene BCAS3): 5.92
- Fold change ([2]; gene BMP5): 7.72
- Fold change ([2]; gene BMP7): 8.40
- Fold change ([2]; gene BTG3): 9.06
- Fold change ([2]; gene C1orf59): 8.43
- Fold change ([2]; gene C6orf150): 5.95
- Fold change ([2]; gene C13orf18): 5.79
- Fold change ([2]; gene CA2): 9.87
- Fold change ([2]; gene CALB2): 6.05
- Fold change ([2]; gene CALHM2): 8.63
- Fold change ([2]; gene CALML5): 6.39
- Fold change ([2]; gene CAV1): 7.44
- Fold change ([2]; gene CAV2): 6.63
- Fold change ([2]; gene CCDC83): 6.76
- Fold change ([2]; gene CEACAM5): 6.84
- Fold change ([2]; gene CMTM3): 7.06
- Fold change ([2]; gene CNKSR3): 6.27
- Fold change ([2]; gene CTNND2): 6.83
- Fold change ([2]; gene CXCR7): 10.15
- Fold change ([2]; gene CYBA): 9.51
- Fold change ([2]; gene DCLK1): 7.84
- Fold change ([2]; gene DDX43): 8.53
- Fold change ([2]; gene DPYSL5): 5.76
- Fold change ([2]; gene ECHDC1): 7.73
- Fold change ([2]; gene ELOVL2): 7.14
- Fold change ([2]; gene FABP5): 6.38
- Fold change ([2]; gene FAM189A2): 6.33
- Fold change ([2]; gene FZD6): 7.54
- Fold change ([2]; gene GPER): 7.51
- Fold change ([2]; gene GSTT1): 7.93
- Fold change ([2]; gene HAR1B): 7.11
- Fold change ([2]; gene HMCN1): 7.54
- Fold change ([2]; gene HPDL): 7.68
- Fold change ([2]; gene KCNJ3): 8.31
- Fold change ([2]; gene KCNJ8): 6.44
- Fold change ([2]; gene KCNQ1OT1): 6.60
- Fold change ([2]; gene KIF1A): 7.12
- Fold change ([2]; gene KLK6): 5.98
- Fold change ([2]; gene KLK11): 8.08
- Fold change ([2]; gene LOC389332): 6.52
- Fold change ([2]; gene LOC654433): 6.72
- Fold change ([2]; gene LOC732272): 7.09
- Fold change ([2]; gene LOC100508679): 9.85
- Fold change ([2]; gene LPIN2): 6.27
- Fold change ([2]; gene LRRC10B): 7.17
- Fold change ([2]; gene LXN): 11.09
- Fold change ([2]; gene LYPD1): 6.66
- Fold change ([2]; gene MAGED4B): 6.80
- Fold change ([2]; gene MALL): 6.05
- Fold change ([2]; gene MARCKS): 6.99
- Fold change ([2]; gene ME1): 6.91
- Fold change ([2]; gene MEST): 8.84
- Fold change ([2]; gene MUCL1): 6.13
- Fold change ([2]; gene NCRNA00052): 7.27
- Fold change ([2]; gene NUP210L): 7.84
- Fold change ([2]; gene OOEP): 6.57
- Fold change ([2]; gene PCDH10): 5.78
- Fold change ([2]; gene PDGFRL): 5.77
- Fold change ([2]; gene PM20D2): 6.56
- Fold change ([2]; gene PMP22): 5.93
- Fold change ([2]; gene POTEB): 7.70
- Fold change ([2]; gene POTED): 6.82
- Fold change ([2]; gene PPARG): 7.30
- Fold change ([2]; gene RAMP1): 5.82
- Fold change ([2]; gene RAMP3): 7.25
- Fold change ([2]; gene RGS22): 7.22
- Fold change ([2]; gene RP86KA3): 7.84
- Fold change ([2]; gene S100A14): 6.73
- Fold change ([2]; gene SALL4): 6.60
- Fold change ([2]; gene SDR42E1): 8.01
- Fold change ([2]; gene SERPINA5): 5.87
- Fold change ([2]; gene SLC6A14): 8.73
- Fold change ([2]; gene SLC7A2): 8.32
- Fold change ([2]; gene SLC27A6): 8.00
- Fold change ([2]; gene SNX7): 7.48
- Fold change ([2]; gene SOX3): 6.52
- Fold change ([2]; gene SPANXA1): 6.68
- Fold change ([2]; gene SPANXB2): 6.55
- Fold change ([2]; gene ST8SIA4): 6.99
- Fold change ([2]; gene TFPI2): 6.82
- Fold change ([2]; gene THBD): 5.97
- Fold change ([2]; gene TLR2): 5.74
- Fold change ([2]; gene TMEM26): 6.66
- Fold change ([2]; gene TMEM64): 6.46
- Fold change ([2]; gene TMEM150C): 7.57
- Fold change ([2]; gene TOX2): 6.29
- Fold change ([2]; gene TPM4): 7.60
- Fold change ([2]; gene TSPYL5): 9.50
- Fold change ([2]; gene UGT1A6): 5.78
- Fold change ([2]; gene UGT1A8): 6.60
- Fold change ([2]; gene WISP2): 6.73
- Fold change ([2]; gene XIST): 8.53
- Fold change ([2]; gene ZNF618): 6.39
